Test system: Aft1/2 target genes FTR1, FET3, HMX1, LSO1 in WT S. cerevisiae
Assay: RT-qPCR of Aft1/2 target genes
Format: cell-based, Saccharomyces cerevisiae
Conditions: WT Sc cells, 10 µM, 24 h
Protocol: WT and […] cells were grown overnight in complete supplement mixture (CSM). […] After 24 h of incubation, cells were collected, and total RNA purification, reverse transcription, and RT-qPCR were performed as previously described with minor modifications ([59], [66]). Briefly, total RNA was purified using the RNeasy Mini Kit (74104, Qiagen), and reverse transcription was performed using the QuantiTect Reverse Transcription Kit (205311, Qiagen). RT-qPCR experiments were done using the HOT FIREPol EvaGreen qPCR Mix (08-36-00001-10, Solis Biodyne) and a LightCycler 96 System (Roche). Expression of the 5S gene was used as a control. The primers used in RT-qPCR experiments are as follows: […]

c1ccc(-c2cccc(-c3ccccn3)n2)nc1 [2,2′:6′,2′′-terpyridine]
expression of Aft1/2 target genes FTR1, FET3, HMX1, LSO1: robust activation | expression of control 5S RNA: no effect
